Assay [1] has as its target T1, SLC26A4 (Homo sapiens, UniProt O43511).
T1 sequence (O43511 1-780): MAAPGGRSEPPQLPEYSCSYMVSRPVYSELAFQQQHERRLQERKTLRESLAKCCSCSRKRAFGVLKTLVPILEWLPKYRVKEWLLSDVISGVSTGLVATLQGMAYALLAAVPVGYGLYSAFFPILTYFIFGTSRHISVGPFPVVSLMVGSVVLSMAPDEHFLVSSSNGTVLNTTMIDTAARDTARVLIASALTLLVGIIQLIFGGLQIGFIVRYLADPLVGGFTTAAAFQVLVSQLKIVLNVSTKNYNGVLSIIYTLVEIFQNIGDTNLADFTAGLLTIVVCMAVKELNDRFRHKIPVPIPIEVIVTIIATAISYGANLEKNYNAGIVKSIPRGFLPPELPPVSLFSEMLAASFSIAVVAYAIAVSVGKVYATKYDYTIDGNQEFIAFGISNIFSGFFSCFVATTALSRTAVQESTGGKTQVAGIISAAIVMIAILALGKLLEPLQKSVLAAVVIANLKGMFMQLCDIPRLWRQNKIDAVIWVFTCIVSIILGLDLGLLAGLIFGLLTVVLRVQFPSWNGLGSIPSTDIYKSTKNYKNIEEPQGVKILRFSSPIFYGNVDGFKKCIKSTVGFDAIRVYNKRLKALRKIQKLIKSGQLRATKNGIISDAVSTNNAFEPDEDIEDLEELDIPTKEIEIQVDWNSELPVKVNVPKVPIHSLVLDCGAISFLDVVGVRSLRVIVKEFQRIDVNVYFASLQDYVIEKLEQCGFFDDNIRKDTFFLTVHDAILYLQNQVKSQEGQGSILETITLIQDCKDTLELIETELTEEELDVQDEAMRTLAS
The assay is described as follows: YFP-based selectivity assay, SLC26A4. It counts as cell-based. Conditions: for inhibition at 10 µM: read-out: % Inhibition SLC26A4.

The test system of assay [2] is TMEM16A. Description: YFP-based selectivity assay, TMEM16A. Type of assay: cell-based. Conditions: 10 μM, mean ± S.E.M., n = 6–8.
Assay [3] deals with T2, SLC26A3 (Mus musculus, UniProt Q9WVC8).
T2 sequence (Q9WVC8 1-757): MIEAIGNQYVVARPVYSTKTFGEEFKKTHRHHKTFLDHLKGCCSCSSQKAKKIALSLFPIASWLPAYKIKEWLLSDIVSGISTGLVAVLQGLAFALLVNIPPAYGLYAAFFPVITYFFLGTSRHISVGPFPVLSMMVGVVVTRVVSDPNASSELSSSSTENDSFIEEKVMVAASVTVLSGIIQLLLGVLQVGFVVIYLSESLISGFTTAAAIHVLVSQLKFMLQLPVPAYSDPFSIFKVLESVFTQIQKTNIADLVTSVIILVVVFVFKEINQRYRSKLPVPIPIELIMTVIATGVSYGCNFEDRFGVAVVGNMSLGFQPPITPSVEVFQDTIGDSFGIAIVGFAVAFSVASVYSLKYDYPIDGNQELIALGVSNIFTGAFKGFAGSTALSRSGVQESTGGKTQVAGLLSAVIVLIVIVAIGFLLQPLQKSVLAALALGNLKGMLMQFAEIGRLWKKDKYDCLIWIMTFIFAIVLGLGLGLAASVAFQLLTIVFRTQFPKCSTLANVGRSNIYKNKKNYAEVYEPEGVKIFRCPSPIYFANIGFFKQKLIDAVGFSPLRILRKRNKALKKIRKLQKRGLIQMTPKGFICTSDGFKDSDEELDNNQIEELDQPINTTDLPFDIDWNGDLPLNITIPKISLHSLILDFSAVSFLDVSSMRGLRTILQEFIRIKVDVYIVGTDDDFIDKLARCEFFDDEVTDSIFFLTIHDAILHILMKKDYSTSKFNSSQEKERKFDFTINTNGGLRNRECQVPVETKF
Description: Kinetic studies of inhibitor action. It counts as cell-based, murine. Conditions: from kinetics of inhibition onset and washout.

Assay [4] relates to loperamide-induced constipation. The assay is described as follows: Loperamide-induced model of constipation in mice. Type of assay: in vivo, CD1 mice.
Assay [5] concerns absorption of fluid and oxalate from the loop lumen. To be noted: closed colonic loops in mice; cited from earlier work.
Assay [6] has as its system loperamide-induced constipation. Conditions: mouse model of constipation produced by loperamide; cited from earlier work.
Assay [7] has as its system hyperoxaluria and oxalate nephropathy. To be noted: mice orally loaded with oxalate; cited from earlier work.
Where [8] appears, read: loperamide-treated mice (0.3 mg/kg ip), 10 mg/kg oral gavage, vs vehicle.
[9] abbreviates: loperamide 0.3 mg/kg intraperitoneal.

One may read the inhibition as the relative decrease from the control value, in per cent. Take `O=C(Nc1ccccc1C(=O)O)c1ccc2c(c1)C(=O)N(c1ccc(Cl)cc1)C2=O` [Compound 1a]: in assay [1], the inhibition at 10 µM is -14 ± 19%.
With `Cc1cc(C)cc(N(C)S(=O)(=O)c2nnc(NC(=O)COc3ccc(C)c(C)c3)s2)c1` [Compound 2a], the “% Inhibition TMEM16A” value in assay [2] is reported as above 80%.
For the compound `O=c1cc(COc2ccccc2Cl)nc2scc(-c3ccccc3)n12` [Compound 3a, 7-(2-chloro-phenoxymethyl)-3-phenyl-thiazolo [3,2-a]pyrimidin-5-one], the site of action result in assay [3] was “Extracellular”. For the same compound, the inhibition at 10 µM in assay [1] is -13 ± 23%. In addition, in assay [4] (setting [8]), the number of pellets result is given as “significantly increased” and the stool weight result is on record as “significantly increased”.
Consider `Cc1ccccc1COc1ccc2oc(-c3ccccc3)c(C(=O)O)c2c1` [Compound 4a], for which the site of action entry in assay [3] is reported as “Extracellular”. Further, the inhibition at 10 µM in assay [1] is -13 ± 21%.
On to `COC(=O)c1c(C)oc2ccc(OC(=O)COCc3ccccc3)cc12` [Compound 4h], for which the “activity against SLC26A4 (in words)” value in assay [1] is recorded as “active”.
Take `Cc1c(CC(=O)O)c(=O)oc2c(C)c(OCc3cccc(I)c3)ccc12` [DRAinh-A270, [7-(3-iodobenzyloxy)-4,8-dimethylcoumarin]-3-acetic acid]: the “absorption of fluid and oxalate from the loop lumen” value in assay [5] is “inhibited”. Further, the site of action result in assay [3] is listed as “intracellular”. Moreover, in assay [6], the “improving stool output and hydration” value is given as “effective”. Besides, the “preventing hyperoxaluria and oxalate nephropathy” value in assay [7] is “effective”.
With `CN(C)C(=O)C(CCN1CCC(O)(c2ccc(Cl)cc2)CC1)(c1ccccc1)c1ccccc1` [Loperamide, loperamide, reference compound], in assay [4] (setting [9]), the “reduced pellet number compared to control mice” value is reported as above 90% and the “reduced stool weight compared to control mice” value is above 90%.

Values taken from article PMC10124120 (European journal of medicinal chemistry, 2023).
